Assays:
[1] = weight loss products; cited from earlier work
[2] = system: HFD-fed obese mice; assay: Leptin injection upon acute celastrol treatment, HFD-fed obese mice; type: in vivo; settings: leptin 10 mg/kg i.p.
Description: (§1) It was therefore hypothesized that celastrol exerts anti-obesity effects through increasing leptin sensitivity in the brains of the HFD-fed obese mice. To test this hypothesis, leptin was administered to celastrol- or vehicle-treated HFD-fed obese animals. To avoid any possible leptin sensitizing effect of weight loss or decreased food intake created by celastrol administration, leptin injections were carried out upon acute celastrol treatment as described below.
(§2) Lean and HFD-fed obese mice were divided into four groups: 1) DMSO+saline, 2) DMSO+leptin, 3) celastrol+saline, and 4) celastrol+leptin (n=3 per group). Mice were injected (i.p.) with 100 μg/kg celastrol or vehicle (DMSO) one hour before dark cycle (day zero). 24 hours later, mice were injected for a second time with celastrol or DMSO (day 1), and all animals were then taken to 24 hour-fasting. On day two, at 21 hours of fasting, mice received a final injection of DMSO or celastrol. 30 minutes prior to dark cycle, at 23.5 hour of fasting, mice received a single i.p. injection of leptin (10 mg/kg, dissolved in saline), or saline. […] 1, 3, 6, 15, and 24-hour food intake and 24-hour body weight changes were recorded (FIG. 7A). […] This is clearly evident when food intake of the celastrol-treated mice is calculated in percent values (FIG. 7B). […]

[3] = system: lean mice; assay: Leptin injection upon acute celastrol treatment, lean mice; type: in vivo; settings: 6-hour time point, leptin 10 mg/kg i.p., DMSO or celastrol 100 μg/kg i.p. pretreatment
Description: as §1, §2

[4] = system: mice; assay: Locomotor activity (Comprehensive Lab Animal Monitoring System); type: in vivo
Description: FIGS. 16A and 16B are graphs showing x (FIG. 16A) and y (FIG. 16B) direction ambulatory motion for control and celastrol in dark and light cycles. Toxicity was evaluated using Columbus Instruments Comprehensive Lab Animal Monitoring System we have measure the locomotor activity of the animals.
Locomotor activity was also normal in celastrol-treated mice. This is consistent with celastrol not having a toxic effect causing anorexia and weight loss, since the latter would be associated with decreased locomotor activity.
FIGS. 16A and 16B are graphs showing x (FIG. 16A) and y (FIG. 16B) direction ambulatory motion for control and celastrol in dark and light 2 cycles. Toxicity was evaluated using Columbus Instruments Comprehensive Lab Animal Monitoring System we have measure the locomotor activity of the animals.

[5] = system: alanine transaminase (ALT); assay: Serum ALT by ELISA; type: in vivo; settings: HFD-fed obese mice; 100 μg/kg i.p., three weeks
Description: (§3) To investigate the effect of celastrol administration on liver function, serum levels of alanine transaminase (ALT) and aspartate transaminase (AST) were measured in mice following three weeks of celastrol treatment (100 μg/kg, i.p.). ALT and AST were measured using an enzyme-linked immunosorbent assay (ELISA) kit (from Bio Scientific).

[6] = system: aspartate transaminase (AST); assay: Serum AST by ELISA; type: in vivo; settings: HFD-fed obese mice; 100 μg/kg i.p., three weeks
Description: as §3

[7] = system: HFD-fed obese mice; assay: Liver and kidney histology (H&E); type: in vivo; settings: 100 μg/kg i.p., three weeks

[Cr] [Chromium]
Safety [1]: Likely safe

leptin: peptide hormone, afferent signal in a negative feedback loop regulating food intake and body weight
decrease in food intake upon leptin injection ([2]; 6-hour time point, DMSO or celastrol 100 μg/kg i.p. pretreatment): approximately 40%
24-hour body weight change ([2]; 24 hour ad libitum feeding after 24-hour fasting, celastrol 100 μg/kg i.p.): resistant
decrease in food intake upon leptin injection [3]: approximately 40%

Conjugated linoleic acid [Conjugated linoleic acid (CLA)]
Effectiveness [1]: Possibly effective
Safety [1]: Possibly safe

CC1=C(O)C(=O)C=C2C1=CC=C1[C@@]2(C)CC[C@@]2(C)[C@@H]3C[C@](C)(C(=O)O)CC[C@]3(C)CC[C@]12C [celastrol]
locomotor activity ([4]; celastrol-treated mice): normal
x and y direction ambulatory motion counts ([4]; dark and light cycles, celastrol versus control): not significantly different
serum ALT level [5]: decreases
serum AST level [6]: decreases
kidney morphology [7]: no detectable change

Reference: patent US20150274634A1, “COMPOUNDS FOR THE TREATMENT OF OBESITY AND METHODS OF USE THEREOF” (The Children's Medical Center Corporation, priority 2014, published 2015)
